According to patent US11753408B2, “Compounds and method for blocking transmission of malarial parasite” (The United States of America, as represented by the …, priority 2016, dated 2023):

Tests used:
[1] = test system: Asexual parasites of P. falciparum strain 3D7; assay: In vitro drug activity on asexual parasites (SYBR Green assay); assay type: cell-based, Plasmodium falciparum
Method in brief: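 SYBR Green I fluorescence (ex 490, em 520 nm) was read after freeze-thaw lysis and 30 min staining at room temperature. Before that, drug-treated cultures (0.5% parasitemia, 2% hematocrit, DMSO ≤0.5%) were incubated 72 h, in duplicate.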

[2] = Solubility at pH 7.4; assay type: physicochemical
[3] = Microsomal stability (rat); assay type: in vitro ADME; conditions: rat microsomes
[4] = PAMPA permeability; assay type: in vitro ADME
[5] = target: mTOR (Homo sapiens, UniProt P42345); assay: mTOR activity (no method described); assay type: biochemical

EC50 [1] | Sol @ pH 7.4 [2] | Microsomal Stability (rat) T1/2 [3] | PAMPA Permeability [4] | mTOR [5] | Compound
130 nM | <1 ug/mL | 18.9 min | < 1 ×10⁻⁶ cm/s | 1299 nM | CC(C)NC(=O)c1ccc(-n2c(=O)ccc3cnc4ccc(-c5ccc(Cl)cc5)cc4c32)cc1 [Compound 213]
18.8 nM | <1 ug/mL | 21.2 min | 333 ×10⁻⁶ cm/s | 339.4 nM | O=C(NCCCO)c1ccc(-n2c(=O)ccc3cnc4ccc(-c5ccc(Cl)cc5)cc4c32)cc1 [Compound 214]
178 nM | <1 ug/mL | 6.3 min | 492 ×10⁻⁶ cm/s | 763.8 nM | O=C(NCCN1CCOCC1)c1ccc(-n2c(=O)ccc3cnc4ccc(-c5ccc(Cl)cc5)cc4c32)cc1 [Compound 215]
42.2 nM | <1 ug/mL | 6.7 min | 1.1 ×10⁻⁶ cm/s | 832.1 nM | CCNC(=O)c1ccc(-n2c(=O)ccc3cnc4ccc(-c5ccc(Cl)cc5)cc4c32)cc1 [Compound 216]
531 nM | >83 ug/mL | >30 min | 130 ×10⁻⁶ cm/s | 17830 nM | O=C(c1ccc(-n2c(=O)ccc3cnc4ccc(-c5ccc(CCN6CCCC6)cc5)cc4c32)cc1)N1CCOCC1 [Compound 217]
1680 nM | >69 ug/mL | >30 min | 100 ×10⁻⁶ cm/s | 16250 nM | CN(C)CC#Cc1ccc2ncc3ccc(=O)n(-c4ccc(C(=O)N5CCOCC5)cc4)c3c2c1 [Compound 218]
371 nM | 6.3 ug/mL | >30 min | 3.3 ×10⁻⁶ cm/s | 3288 nM | O=C(c1ccc(-n2c(=O)ccc3cnc4ccc(-c5ccc(OC6CCNCC6)cc5)cc4c32)cc1)N1CCOCC1 [Compound 219]
156 nM | 9.4 ug/mL | 12.6 min | 127 ×10⁻⁶ cm/s | 4247 nM | O=C(NCCN1CCCC1)c1ccc(-n2c(=O)ccc3cnc4ccc(-c5ccc(Cl)cc5)cc4c32)cc1 [Compound 220]
45.5 nM | <1 ug/mL | 22.2 min | 133 ×10⁻⁶ cm/s | 1504 nM | COc1cc(-c2ccc3ncc4ccc(=O)n(-c5ccc(C(=O)NC6CC6)cc5)c4c3c2)ccc1Cl [Compound 221]
22.8 nM | 7.1 ug/mL | 27.2 min | 758 ×10⁻⁶ cm/s | 820.6 nM | Cc1cc(C(=O)NC2CC2)ccc1-n1c(=O)ccc2cnc3ccc(-c4ccc(F)c(O)c4)cc3c21 [Compound 222]
19.8 nM | <1 ug/mL | 23.3 min | 735 ×10⁻⁶ cm/s | 916.9 nM | Cc1cc(C(=O)NC2CC2)ccc1-n1c(=O)ccc2cnc3ccc(-c4ccc(Cl)c(O)c4)cc3c21 [Compound 225]
22.7 nM | <1 ug/mL | 18 min | 364 ×10⁻⁶ cm/s | 850.5 nM | O=C(NC1COC1)c1ccc(-n2c(=O)ccc3cnc4ccc(-c5ccc(Cl)cc5)cc4c32)cc1 [Compound 231]
53.4 nM | 9.2 ug/mL | >30 min | 7.6 ×10⁻⁶ cm/s | 1065 nM | O=C(NC1CNC1)c1ccc(-n2c(=O)ccc3cnc4ccc(-c5ccc(Cl)cc5)cc4c32)cc1 [Compound 232]
162 nM | >76 ug/mL | >30 min | 155 ×10⁻⁶ cm/s | 6306 nM | O=C(NC1CC1)c1ccc(-n2c(=O)ccc3cnc4ccc(-c5ccc(CN6CCCC6)cc5)cc4c32)cc1 [Compound 233]
2220 nM | <1 ug/mL | 1.4 min | 874 ×10⁻⁶ cm/s | 18920 nM | Cc1nc2ccc(-c3ccc(Cl)cc3)cc2c2c1ccc(=O)n2-c1ccc(C(=O)N2CCOCC2)cc1 [Compound 234]
24400 nM | <1 ug/mL | 3.4 min | 564 ×10⁻⁶ cm/s | 100000 nM | O=C(c1ccc(-n2c(=O)ccc3c(F)nc4ccc(-c5ccc(Cl)cc5)cc4c32)cc1)N1CCOCC1 [Compound 235]
1200 nM | >78 ug/mL | >30 min | < 1 ×10⁻⁶ cm/s | 50000 nM | O=C(c1ccc(-n2c(=O)ccc3c[n+]([O-])c4ccc(-c5ccc(Cl)cc5)cc4c32)cc1)N(CCO)CCO [Compound 236]
39500 nM | >65 ug/mL | >30 min | 3.3 ×10⁻⁶ cm/s | 100000 nM | O=C(O)c1ccc(-n2c(=O)ccc3c(O)nc4ccc(-c5ccc(Cl)cc5)cc4c32)cc1 [Compound 237]
56.8 nM | <1 ug/mL | >30 min | 439 ×10⁻⁶ cm/s | 214.8 nM | Nc1cc(-c2ccc3ncc4ccc(=O)n(-c5ccc(C(=O)NC6CC6)cc5)c4c3c2)ccc1Cl [Compound 238]
17.5 nM | <1 ug/mL | >30 min | 79.9 ×10⁻⁶ cm/s | 242.2 nM | NC(=O)c1ccc(-n2c(=O)ccc3cnc4ccc(-c5ccc(Cl)cc5)cc4c32)cc1 [Compound 239]
52.9 nM | 31.6 ug/mL | >30 min | < 1 ×10⁻⁶ cm/s | 443.6 nM | NCCc1ccc(-c2ccc3ncc4ccc(=O)n(-c5ccc(C(=O)NC6CC6)cc5)c4c3c2)cc1 [Compound 240]
335 nM | >74 ug/mL | >30 min | 18.6 ×10⁻⁶ cm/s | 6061 nM | CN(C)CCc1ccc(-c2ccc3ncc4ccc(=O)n(-c5ccc(C(=O)NC6CC6)cc5)c4c3c2)cc1 [Compound 241]
489 nM | >74 ug/mL | >30 min | < 1 ×10⁻⁶ cm/s | 373 nM | O=C(c1ccc(-n2c(=O)ccc3cnc4ccc(-c5ccc6c(c5)CNC6)cc4c32)cc1)N1CCOCC1 [Compound 242]
677 nM | >76 ug/mL | >30 min | 382 ×10⁻⁶ cm/s | 14600 nM | CCN(CC)Cc1ccc(-c2ccc3ncc4ccc(=O)n(-c5ccc(C(=O)NC6CC6)cc5)c4c3c2)cc1 [Compound 243]
1640 nM | >76 ug/mL | >30 min | 216 ×10⁻⁶ cm/s | 7873 nM | CN1Cc2ccc(-c3ccc4ncc5ccc(=O)n(-c6ccc(C(=O)N7CCOCC7)cc6)c5c4c3)cc2C1 [Compound 244]
3820 nM | >61 ug/mL | >30 min | 11.7 ×10⁻⁶ cm/s | 10410 nM | N#Cc1ccc2ncc3ccc(=O)n(-c4ccc(C(=O)N5CCOCC5)cc4)c3c2c1 [Compound 245]
1260 nM | >72 ug/mL | >30 min | 1.5 ×10⁻⁶ cm/s | 645.9 nM | CC(C)(N)c1ccc(-c2ccc3ncc4ccc(=O)n(-c5ccc(C(=O)NC6CC6)cc5)c4c3c2)cc1 [Compound 246]
81.8 nM | <1 ug/mL | 16.7 min | 846 ×10⁻⁶ cm/s | 1903 nM | Cc1cc(C(=O)NC2CC2)ccc1-n1c(=O)ccc2cnc3ccc(-c4ccc(Cl)cc4)nc3c21 [Compound 247]
